Legend:
[1] = biological target: Receptor-type tyrosine-protein kinase FLT3 (Homo sapiens) (UniProt P36888)
[2] = biological target: Myosin light chain kinase 2, skeletal/cardiac muscle (Homo sapiens) (UniProt Q9H1R3)
[3] = biological target: T1, Inhibitor of nuclear factor kappa-B kinase subunit epsilon (Homo sapiens) (UniProt Q14164)
T1 sequence (whole entry): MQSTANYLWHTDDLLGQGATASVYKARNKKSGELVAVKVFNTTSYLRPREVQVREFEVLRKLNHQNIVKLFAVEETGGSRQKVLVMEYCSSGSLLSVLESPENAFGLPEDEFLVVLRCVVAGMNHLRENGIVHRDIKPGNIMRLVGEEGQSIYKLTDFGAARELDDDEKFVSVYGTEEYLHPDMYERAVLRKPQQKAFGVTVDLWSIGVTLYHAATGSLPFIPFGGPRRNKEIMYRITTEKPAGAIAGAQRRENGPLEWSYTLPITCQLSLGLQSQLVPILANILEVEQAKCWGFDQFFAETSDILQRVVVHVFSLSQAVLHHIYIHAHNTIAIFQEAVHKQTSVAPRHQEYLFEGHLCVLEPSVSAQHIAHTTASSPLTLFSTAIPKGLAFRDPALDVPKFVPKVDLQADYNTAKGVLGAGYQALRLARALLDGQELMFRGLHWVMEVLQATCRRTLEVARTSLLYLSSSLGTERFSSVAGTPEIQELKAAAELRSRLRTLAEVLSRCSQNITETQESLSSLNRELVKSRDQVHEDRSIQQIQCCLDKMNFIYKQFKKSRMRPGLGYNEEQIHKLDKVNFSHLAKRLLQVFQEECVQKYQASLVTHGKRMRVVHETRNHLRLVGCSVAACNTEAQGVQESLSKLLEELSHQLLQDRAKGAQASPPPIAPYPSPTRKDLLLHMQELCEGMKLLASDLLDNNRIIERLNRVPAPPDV

[4] = biological target: Vascular endothelial growth factor receptor 1 (Homo sapiens) (UniProt P17948)
[5] = biological target: Tyrosine-protein kinase BTK (Homo sapiens) (UniProt Q06187)
[6] = biological target: Cyclin-dependent kinase 13 (Homo sapiens) (UniProt Q14004)
[7] = biological target: Serine/threonine-protein kinase MRCK gamma (Homo sapiens) (UniProt Q6DT37)
[8] = biological target: Muscarinic acetylcholine receptor M3 (Homo sapiens) (UniProt P20309); conditions: Compound concentration 10.0 uM
[9] = biological target: Bone morphogenetic protein receptor type-1A (Homo sapiens) (UniProt P36894)
[10] = system: Receptor-type tyrosine-protein kinase FLT3 (Homo sapiens), P36888 [K663Q]
[11] = biological target: Calcium/calmodulin-dependent protein kinase type II subunit gamma (Homo sapiens) (UniProt Q13555)
[12] = biological target: Cyclin-dependent kinase 3 (Homo sapiens) (UniProt Q00526)
[13] = biological target: Serine/threonine-protein kinase 36 (Homo sapiens) (UniProt Q9NRP7)
[14] = biological target: Sigma non-opioid intracellular receptor 1 (Homo sapiens, UniProt Q99720); conditions: Compound concentration 10.0 uM
[15] = biological target: Fibroblast growth factor receptor 3 (Homo sapiens) (UniProt P22607)
[16] = biological target: T2, Muscarinic acetylcholine receptor M4 (Homo sapiens) (UniProt P08173); conditions: Compound concentration 10.0 uM
T2 sequence (whole entry): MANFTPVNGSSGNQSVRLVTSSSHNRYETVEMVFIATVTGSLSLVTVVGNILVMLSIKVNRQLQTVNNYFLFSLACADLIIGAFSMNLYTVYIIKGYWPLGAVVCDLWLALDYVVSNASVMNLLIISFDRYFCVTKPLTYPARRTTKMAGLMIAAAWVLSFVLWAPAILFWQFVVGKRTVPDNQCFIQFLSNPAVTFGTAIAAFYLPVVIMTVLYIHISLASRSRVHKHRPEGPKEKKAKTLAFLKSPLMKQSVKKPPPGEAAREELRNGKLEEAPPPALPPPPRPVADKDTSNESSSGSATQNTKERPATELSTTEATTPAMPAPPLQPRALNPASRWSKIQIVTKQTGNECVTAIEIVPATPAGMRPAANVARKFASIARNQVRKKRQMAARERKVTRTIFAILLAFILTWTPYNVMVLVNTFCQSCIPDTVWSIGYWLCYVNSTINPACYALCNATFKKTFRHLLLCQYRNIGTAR

[17] = biological target: Serine/threonine-protein kinase ULK2 (Homo sapiens) (UniProt Q8IYT8)
[18] = biological target: Mitogen-activated protein kinase kinase kinase 10 (Homo sapiens) (UniProt Q02779)
[19] = biological target: Tyrosine-protein kinase JAK2 (Homo sapiens) (UniProt O60674)
[20] = biological target: Serine/threonine-protein kinase Nek5 (Homo sapiens) (UniProt Q6P3R8)
[21] = biological target: Cyclin-dependent kinase-like 1 (Homo sapiens) (UniProt Q00532)
[22] = biological target: T3, Dual specificity mitogen-activated protein kinase kinase 6 (Homo sapiens) (UniProt P52564)
T3 sequence (whole entry): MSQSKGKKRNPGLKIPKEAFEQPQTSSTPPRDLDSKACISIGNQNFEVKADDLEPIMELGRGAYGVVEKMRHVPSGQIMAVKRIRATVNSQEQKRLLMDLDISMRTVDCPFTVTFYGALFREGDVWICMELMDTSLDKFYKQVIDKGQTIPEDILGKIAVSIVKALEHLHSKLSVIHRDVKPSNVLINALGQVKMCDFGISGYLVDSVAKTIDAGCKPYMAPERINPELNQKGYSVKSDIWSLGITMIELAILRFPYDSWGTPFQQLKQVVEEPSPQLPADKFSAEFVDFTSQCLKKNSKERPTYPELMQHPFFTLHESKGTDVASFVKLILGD

[23] = biological target: Serine/threonine-protein kinase pim-2 (Homo sapiens) (UniProt Q9P1W9)
[24] = system: Receptor-type tyrosine-protein kinase FLT3 (Homo sapiens), P36888 [UNDEFINED MUTATION]
[25] = Compound concentration 1000.0 nM
[26] = Compound concentration 100.0 nM

Mitogen-activated protein kinase kinase kinase 10 (Homo sapiens), sequence (Q02779 whole entry, looked up): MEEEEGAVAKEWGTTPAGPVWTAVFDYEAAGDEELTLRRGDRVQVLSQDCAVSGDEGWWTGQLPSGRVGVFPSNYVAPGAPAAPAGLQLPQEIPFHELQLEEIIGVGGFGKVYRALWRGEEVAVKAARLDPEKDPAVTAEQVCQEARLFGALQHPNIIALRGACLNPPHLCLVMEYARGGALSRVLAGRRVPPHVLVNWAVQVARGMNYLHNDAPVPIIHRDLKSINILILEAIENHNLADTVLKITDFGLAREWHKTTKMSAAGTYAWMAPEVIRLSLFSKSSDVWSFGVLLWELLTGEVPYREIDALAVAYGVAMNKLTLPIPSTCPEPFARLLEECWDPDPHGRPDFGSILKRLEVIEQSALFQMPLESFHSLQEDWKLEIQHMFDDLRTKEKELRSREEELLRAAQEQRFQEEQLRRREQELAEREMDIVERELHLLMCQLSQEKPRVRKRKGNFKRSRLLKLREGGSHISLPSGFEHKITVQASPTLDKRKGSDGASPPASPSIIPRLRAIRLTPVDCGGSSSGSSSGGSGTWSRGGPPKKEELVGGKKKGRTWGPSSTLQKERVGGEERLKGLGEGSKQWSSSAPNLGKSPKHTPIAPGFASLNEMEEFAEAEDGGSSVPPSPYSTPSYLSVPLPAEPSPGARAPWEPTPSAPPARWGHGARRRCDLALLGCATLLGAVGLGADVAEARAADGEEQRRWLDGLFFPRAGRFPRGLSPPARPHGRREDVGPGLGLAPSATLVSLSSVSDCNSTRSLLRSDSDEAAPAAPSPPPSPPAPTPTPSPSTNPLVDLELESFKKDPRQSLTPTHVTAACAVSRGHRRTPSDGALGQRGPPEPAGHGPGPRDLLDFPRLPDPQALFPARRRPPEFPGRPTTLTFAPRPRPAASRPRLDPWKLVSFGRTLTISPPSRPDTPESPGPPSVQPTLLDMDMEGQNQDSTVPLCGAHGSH
Serine/threonine-protein kinase 36 (Homo sapiens), sequence (Q9NRP7 whole entry): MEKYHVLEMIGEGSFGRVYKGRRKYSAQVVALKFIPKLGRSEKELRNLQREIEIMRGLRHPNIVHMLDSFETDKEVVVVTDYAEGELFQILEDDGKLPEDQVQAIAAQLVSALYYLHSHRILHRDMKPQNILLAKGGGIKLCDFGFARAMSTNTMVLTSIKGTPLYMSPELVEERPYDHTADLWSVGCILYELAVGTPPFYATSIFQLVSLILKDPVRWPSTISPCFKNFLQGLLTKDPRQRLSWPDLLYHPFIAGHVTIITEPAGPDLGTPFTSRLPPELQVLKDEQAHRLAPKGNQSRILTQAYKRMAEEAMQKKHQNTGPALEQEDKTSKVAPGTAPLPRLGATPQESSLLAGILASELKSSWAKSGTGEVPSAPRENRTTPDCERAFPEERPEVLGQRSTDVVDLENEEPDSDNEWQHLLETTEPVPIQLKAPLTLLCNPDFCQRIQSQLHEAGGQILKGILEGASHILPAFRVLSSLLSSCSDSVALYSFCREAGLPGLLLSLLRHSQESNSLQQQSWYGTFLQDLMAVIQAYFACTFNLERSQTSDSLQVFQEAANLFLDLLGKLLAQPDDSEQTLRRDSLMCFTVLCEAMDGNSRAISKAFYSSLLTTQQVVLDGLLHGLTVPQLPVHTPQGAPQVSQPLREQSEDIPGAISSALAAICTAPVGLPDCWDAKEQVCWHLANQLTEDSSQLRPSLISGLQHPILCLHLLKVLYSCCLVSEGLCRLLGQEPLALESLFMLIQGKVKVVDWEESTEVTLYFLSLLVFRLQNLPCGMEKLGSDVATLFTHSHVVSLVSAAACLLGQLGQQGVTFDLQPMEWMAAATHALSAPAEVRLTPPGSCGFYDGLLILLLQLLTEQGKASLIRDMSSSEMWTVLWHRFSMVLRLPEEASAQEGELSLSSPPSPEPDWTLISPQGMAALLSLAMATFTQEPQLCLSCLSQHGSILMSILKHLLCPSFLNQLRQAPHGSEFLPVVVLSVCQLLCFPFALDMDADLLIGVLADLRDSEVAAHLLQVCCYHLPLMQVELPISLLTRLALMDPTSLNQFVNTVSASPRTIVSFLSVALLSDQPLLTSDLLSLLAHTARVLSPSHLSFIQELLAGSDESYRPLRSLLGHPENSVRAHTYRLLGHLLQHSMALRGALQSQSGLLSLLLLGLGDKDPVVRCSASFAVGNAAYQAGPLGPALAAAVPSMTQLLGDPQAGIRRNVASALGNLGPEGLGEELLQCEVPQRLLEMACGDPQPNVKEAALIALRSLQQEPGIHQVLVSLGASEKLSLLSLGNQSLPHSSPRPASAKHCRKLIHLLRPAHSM
Serine/threonine-protein kinase pim-2 (Homo sapiens), sequence (Q9P1W9 whole entry, looked up): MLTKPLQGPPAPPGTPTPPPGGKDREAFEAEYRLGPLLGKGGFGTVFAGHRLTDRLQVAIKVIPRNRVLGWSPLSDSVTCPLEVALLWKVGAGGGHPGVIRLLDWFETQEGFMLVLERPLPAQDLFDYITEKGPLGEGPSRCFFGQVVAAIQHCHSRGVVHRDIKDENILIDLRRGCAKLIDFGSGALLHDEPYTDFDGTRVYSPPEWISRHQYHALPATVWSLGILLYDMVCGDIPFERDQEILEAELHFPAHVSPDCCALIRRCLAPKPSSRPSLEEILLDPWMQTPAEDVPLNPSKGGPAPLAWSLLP
Cyclin-dependent kinase-like 1 (Homo sapiens), sequence (Q00532 whole entry): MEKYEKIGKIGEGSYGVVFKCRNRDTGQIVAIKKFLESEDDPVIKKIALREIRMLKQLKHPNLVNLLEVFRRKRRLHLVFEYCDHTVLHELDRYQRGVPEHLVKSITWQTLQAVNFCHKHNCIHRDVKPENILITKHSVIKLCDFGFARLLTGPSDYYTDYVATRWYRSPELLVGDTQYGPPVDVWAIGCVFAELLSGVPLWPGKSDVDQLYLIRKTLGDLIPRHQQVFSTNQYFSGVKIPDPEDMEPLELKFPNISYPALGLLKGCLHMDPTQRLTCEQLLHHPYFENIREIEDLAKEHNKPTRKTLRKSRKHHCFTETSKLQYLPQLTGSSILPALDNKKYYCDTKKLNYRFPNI
Serine/threonine-protein kinase ULK2 (Homo sapiens), sequence (Q8IYT8 whole entry): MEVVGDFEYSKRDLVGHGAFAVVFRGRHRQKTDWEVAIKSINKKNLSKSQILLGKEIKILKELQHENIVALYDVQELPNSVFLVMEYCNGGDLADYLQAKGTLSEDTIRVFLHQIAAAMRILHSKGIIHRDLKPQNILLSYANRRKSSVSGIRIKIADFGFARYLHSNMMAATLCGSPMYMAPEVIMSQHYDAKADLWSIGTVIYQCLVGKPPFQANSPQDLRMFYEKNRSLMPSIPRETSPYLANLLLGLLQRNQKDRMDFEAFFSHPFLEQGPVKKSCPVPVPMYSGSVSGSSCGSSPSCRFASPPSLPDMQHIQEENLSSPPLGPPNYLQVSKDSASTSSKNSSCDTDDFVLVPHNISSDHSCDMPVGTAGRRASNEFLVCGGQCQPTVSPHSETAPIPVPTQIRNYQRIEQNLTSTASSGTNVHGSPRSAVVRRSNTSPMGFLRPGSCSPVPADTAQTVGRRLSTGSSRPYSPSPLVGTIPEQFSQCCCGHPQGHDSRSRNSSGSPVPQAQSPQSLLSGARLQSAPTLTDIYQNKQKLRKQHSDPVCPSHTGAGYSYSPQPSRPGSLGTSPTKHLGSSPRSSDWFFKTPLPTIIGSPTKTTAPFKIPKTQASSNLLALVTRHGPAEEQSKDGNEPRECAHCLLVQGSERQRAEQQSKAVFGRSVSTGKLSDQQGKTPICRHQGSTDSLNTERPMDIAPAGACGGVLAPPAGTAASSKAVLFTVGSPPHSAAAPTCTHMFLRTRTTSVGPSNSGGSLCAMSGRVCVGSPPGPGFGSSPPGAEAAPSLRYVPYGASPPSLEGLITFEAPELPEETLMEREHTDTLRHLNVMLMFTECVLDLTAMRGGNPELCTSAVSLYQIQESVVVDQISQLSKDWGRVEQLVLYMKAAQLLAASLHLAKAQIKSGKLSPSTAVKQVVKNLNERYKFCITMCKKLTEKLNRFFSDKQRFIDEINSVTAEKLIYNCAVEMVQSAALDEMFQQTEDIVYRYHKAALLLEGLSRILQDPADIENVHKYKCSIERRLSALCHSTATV
Fibroblast growth factor receptor 3 (Homo sapiens), sequence (P22607 23-806 limits assumed): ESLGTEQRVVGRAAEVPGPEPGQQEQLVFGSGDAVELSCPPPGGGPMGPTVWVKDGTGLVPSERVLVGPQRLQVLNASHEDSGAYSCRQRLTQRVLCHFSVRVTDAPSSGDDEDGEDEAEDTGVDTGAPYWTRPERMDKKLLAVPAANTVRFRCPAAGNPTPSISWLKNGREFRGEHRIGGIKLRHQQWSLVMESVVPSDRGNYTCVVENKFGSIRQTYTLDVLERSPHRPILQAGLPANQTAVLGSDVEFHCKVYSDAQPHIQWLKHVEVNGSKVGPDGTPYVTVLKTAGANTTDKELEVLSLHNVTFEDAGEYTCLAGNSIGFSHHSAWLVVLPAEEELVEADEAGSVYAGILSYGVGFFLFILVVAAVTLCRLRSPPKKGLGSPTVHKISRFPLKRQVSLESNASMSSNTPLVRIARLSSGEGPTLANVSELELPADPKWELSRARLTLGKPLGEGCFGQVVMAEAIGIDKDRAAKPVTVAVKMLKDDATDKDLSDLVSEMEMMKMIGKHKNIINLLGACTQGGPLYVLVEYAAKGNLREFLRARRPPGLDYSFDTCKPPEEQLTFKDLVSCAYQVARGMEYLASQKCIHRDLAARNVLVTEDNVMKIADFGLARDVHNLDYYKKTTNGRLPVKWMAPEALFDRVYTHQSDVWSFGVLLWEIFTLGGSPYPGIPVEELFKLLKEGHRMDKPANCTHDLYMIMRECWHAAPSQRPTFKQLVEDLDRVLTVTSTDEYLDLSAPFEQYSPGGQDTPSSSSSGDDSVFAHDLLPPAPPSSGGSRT
Cyclin-dependent kinase 3 (Homo sapiens), sequence (Q00526 whole entry, looked up): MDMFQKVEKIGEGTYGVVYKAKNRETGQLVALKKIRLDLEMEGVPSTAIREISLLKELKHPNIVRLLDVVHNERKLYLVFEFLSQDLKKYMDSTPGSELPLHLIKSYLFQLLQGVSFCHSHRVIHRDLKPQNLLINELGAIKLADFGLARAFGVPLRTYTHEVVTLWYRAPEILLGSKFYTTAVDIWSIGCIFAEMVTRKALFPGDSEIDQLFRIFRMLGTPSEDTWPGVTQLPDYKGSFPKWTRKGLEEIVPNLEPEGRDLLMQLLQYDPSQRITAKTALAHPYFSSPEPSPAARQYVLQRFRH

## C[C@@H]1CN(c2cc(-c3nn(C)c4ccc(OC5(C)CC5)cc34)ncn2)C[C@H](C)O1 [MLi-2-NC]
[1]; [25]
  residual activity: 77%
[2]; [25]
  residual activity: 87%
[3]; [25]
  residual activity: 65%
[4]; [25]
  residual activity: 95%
[5]; [25]
  residual activity: 80%
[6]; [25]
  residual activity: 86%
[7]; [25]
  residual activity: 100%
[8]
  inhibition: 6.03%
[9]; [25]
  residual activity: 85%
[10]; [25]
  residual activity: 100%
[11]; [25]
  residual activity: 90%
[12]; [25]
  residual activity: 98%
[13]; [25]
  residual activity: 93%
[14]
  inhibition: 58.2%
[15]; [25]
  residual activity: 100%
[16]
  inhibition: 10.6%
[17]; [25]
  residual activity: 59%
[18]; [25]
  residual activity: 100%
[19]; [25]
  residual activity: 55%
[20]; [25]
  residual activity: 100%
[21]; [25]
  residual activity: 89%
[22]; [25]
  residual activity: 89%
[23]; [25]
  residual activity: 100%
[24]; [25]
  residual activity: 87%

## C[C@@H]1CN(c2cc(-c3n[nH]c4ccc(OC5(C)CC5)cc34)ncn2)C[C@H](C)O1 [MLi-2]
[1]; [26]
  residual activity: 87%
[2]; [26]
  residual activity: 91%
[3]; [26]
  residual activity: 74%
[4]; [26]
  residual activity: 100%
[5]; [26]
  residual activity: 73%
[6]; [26]
  residual activity: 84%
[7]; [26]
  residual activity: 89%
[8]
  inhibition: 7.93%
[9]; [26]
  residual activity: 100%
[10]; [26]
  residual activity: 100%
[11]; [26]
  residual activity: 100%
[12]; [26]
  residual activity: 76%
[13]; [26]
  residual activity: 86%
[14]
  inhibition: 35.9%
[15]; [26]
  residual activity: 74%
[16]
  inhibition: -4.79%
[17]; [26]
  residual activity: 69%
[18]; [26]
  residual activity: 100%
[19]; [26]
  residual activity: 77%
[20]; [26]
  residual activity: 100%
[21]; [26]
  residual activity: 89%
[22]; [26]
  residual activity: 100%
[23]; [26]
  residual activity: 88%
[24]; [26]
  residual activity: 69%

Source: ChEMBL document CHEMBL4507291 (2021)
